Eleven molecules from US7485644B2, “N-{'4-substituted piperazine-1-sulfonylmethylalkyl}-n-hydroxyfomamide compounds as metalloproteinase inhibitors” (AstraZeneca AB, priority 2003, dated 2009) can be followed below.

The first data set has as its target T1, Collagenase 3 (MMP13) (Homo sapiens, UniProt P45452).
T1 construct: made in house
The experiment in a line: Collagenase 3 (MMP13) enzyme inhibition, fluorogenic peptide substrate. To be noted: recombinant human proMMP13 activated with APMA; 4-5 hours at 35° C., pH 7.5; fluorescence λex 328 nm, λem 393 nm; read-out: IC50 (nM), collagenase 3 (MMP13) inhibitory activity. The data set is classed as biochemical. From the text:
The activity and selectivity of the compounds according to the invention may be determined using an appropriate enzyme inhibition test as described in WO 00/12478, WO 00/75108 and WO 01/62742. Collagenase 3 (MMP13) inhibitory activity may be assessed, for example, using the procedure set out below:—
Recombinant human proMMP13 may be expressed and purified as described by Knauper et al. [V. Knauper et al., (1996) The Biochemical Journal 271:1544-1550 (1996)]. The purified enzyme can be used to monitor inhibitors of activity as follows: purified proMMP13 is activated using 1 mM amino phenyl mercuric […] (APMA), 20 hours at 21° C.; the activated MMP13 (11.25 ng per assay) is incubated for 4-5 hours at 35° C. in assay buffer (0.1M Tris-HCl, pH 7.5 containing 0.1M NaCl, 20 mM CaCl2, 0.02 mM ZnCl and 0.05% (w/v) Brij 35 using the synthetic substrate 7-methoxycoumarin-4-yl)acetyl.Pro.Leu.Gly.Leu.N-3-(2,4-dinitrophenyl)-L-2,3-diaminopropionyl.Ala.Arg.NH2 in the presence or absence of inhibitors. Activity is determined by measuring the fluorescence at λex 328 nm and λem 393 nm. By measuring the activity at a range of concentrations, a binding curve can be generated from which the IC50 can be determined, this figure being the inhibitor concentration at which the enzyme activity is reduced by 50%.
For orientation: IC50 means the concentration at which inhibition is half-maximal. Consider `CCC(CS(=O)(=O)N1CCN(c2ccc(OC(F)(F)C(F)F)cc2)CC1)N(O)C=O` (racemic) [Example 7f], for which the IC50 came out at 2.8 nM.
As to `O=CN(O)C(CCc1ncc(F)cn1)CS(=O)(=O)N1CCN(c2ccc(OC(F)(F)C(F)F)cc2)CC1` (centres unmarked) [Example 7c], the IC50 turned out to be 0.19 nM.
Take `O=CN(O)C(CS(=O)(=O)N1CCN(c2ccc(OC(F)(F)C(F)F)cc2)CC1)c1ccccc1` (centres unmarked) [Example 5, Hydroxy[1-phenyl-2-({4-[4-(1,1,2,2-tetrafluoroethoxy)phenyl]piperazin-1-yl}sulfonyl)ethyl]formamide]: the IC50 turned out to be 3.6 nM.
`O=CN(O)C(CS(=O)(=O)N1CCN(c2ccc(OCC(F)(F)F)cc2)CC1)C1CCOCC1` (centres unmarked) [Example 8g]: the concentration for half-maximal inhibition (IC50) was 4 nM.
As for `O=CN(O)C(CCc1ncc(F)cn1)CS(=O)(=O)N1CCN(c2ccc(OCC(F)(F)F)cn2)CC1` (centres unmarked) [Example 2b], the IC50 came to 0.24 nM.
Regarding `O=CN(O)C(CS(=O)(=O)N1CCN(c2ncc(OCC(F)(F)F)cn2)CC1)C1CCOCC1` (centres unmarked) [Example 2f], the IC50 was 13 nM.
As for `O=CN(O)C(CCCc1ncccn1)CS(=O)(=O)N1CCN(c2ccc(OC(F)(F)C(F)F)cc2)CC1` (centres unmarked) [Example 7a], the IC50 was 0.12 nM.
`O=CN(O)C(CCc1ncccn1)CS(=O)(=O)N1CCN(c2ccc(OCC(F)(F)F)cc2)CC1` (centres unmarked) [Example 8b]: the IC50 worked out at 1.5 nM.

Test system in a further data set: not given
Test: not given
Details: not given
Usually melting point stands for the temperature of the solid-liquid transition. Molecule `O=CN(O)[C@@H](CCCc1ncccn1)CS(=O)(=O)N1CCN(c2ncc(OCC(F)(F)F)cn2)CC1` [Example 1, Hydroxy{(1S)-4-pyrimidin-2-yl-1-[({4-[5-(2,2,2-trifluoroethoxy)pyrimidin-2-yl]piperazin-1-yl}sulfonyl)methyl]butyl}formamide] came in with a melting point of 129 to 133 °C.
Still for that read-out and setting: the figure for `O=CN(O)[C@@H](CCc1ncccn1)CS(=O)(=O)N1CCN(c2ccc(OCC(F)(F)F)cn2)CC1` [Example 3, Hydroxy{(1S)-3-pyrimidin-2-yl-1-[({4-[5-(2,2,2-trifluoroethoxy)pyridin-2-yl]piperazin-1-yl}sulfonyl)methyl]propyl}formamide] is 149 to 151 °C; for `O=CN(O)[C@H](CS(=O)(=O)N1CCN(c2ccc(OC(F)(F)C(F)F)cc2)CC1)C1CCOCC1` [Example 4, Hydroxy[(1S)-2-({4-[4-(1,1,2,2-tetrafluoroethoxy)phenyl]piperazin-1-yl}sulfonyl)-1-(tetrahydro-2H-pyran-4-yl)ethyl]formamide] it is 175 to 176 °C.
